This is an account of results in PubChem BioAssay AID1996.

Converted amounts (≈) assume the structure as drawn. Bounds are passed on as bounds.

For this data set the following is noted: buffer; pH 7.4; 200.0 µM.
The compound `O=C(Cc1ccc([N+](=O)[O-])cc1)Nc1ccon1` registered a kinetic solubility of 18.3 µg/mL (≈ 74 µM).
Under `CCOc1ccc(C2C3=C(CCCC3=O)OC(N)=C2[N+](=O)[O-])cc1` (stereo unspecified) stands more than 49.6 µg/mL; under `O=C(O)/C=C/C(=O)Nc1ccc(Cc2ccc(NC(=O)/C=C/C(=O)O)cc2)cc1`, 58 µg/mL (≈ 147 µM); under `Cc1nc([N+](=O)[O-])cn1CC(=O)c1ccccc1`, 31.5 µg/mL (≈ 128 µM).
Under `O=C(O)CNC(=S)N(Cc1ccccc1F)C1CCCCC1` stands more than 48.7 µg/mL.
For the compound `Cc1cc(C)n(NC(=S)NC2CCCCC2)c(=O)c1C#N`, the solubility (kinetic) is more than 45.7 µg/mL.
`O=C(NC1CCCN(Cc2ccccc2F)C1)C1CCC1` (stereo unspecified) had a kinetic solubility of more than 43.6 µg/mL.
`CN1C=C/C(=C\c2cc[n+](C)c3ccccc23)c2ccccc21.[I-]` returned a solubility (kinetic) of 40.1 µg/mL.
Under `CCC(NC(=O)c1ccncc1)c1ccccc1` (stereo unspecified) stands more than 36 µg/mL; under `COc1ccc(NC(=S)N2CCc3ccccc32)cc1OC`, more than 47.2 µg/mL; under `COc1ccc(NC(=O)COC(=O)CCSc2ccccc2)cc1`, 10.6 µg/mL (≈ 30.7 µM).
Under `O=C(Nc1ccccc1O)/C(=C\c1ccccc1)NC(=O)c1ccccc1` stands 14.9 µg/mL (≈ 41.6 µM); under `CCNC(=S)N1CCN(S(=O)(=O)c2ccc(Cl)s2)CC1`, 31.4 µg/mL (≈ 88.7 µM); under `Cc1ccc(NS(=O)(=O)c2ccc3c(c2)n(C)c(=O)n3C)cc1`, 6.3 µg/mL (≈ 19 µM).
Under `Cc1cc(C(=O)OCC(=O)NC(C)c2ccc(F)cc2)c(C)o1` (stereo unspecified) stands 11.4 µg/mL (≈ 35.7 µM).
For the compound `CC(=O)c1cnc(Nc2cccc(C)c2)s1`, the kinetic solubility stood at 13.7 µg/mL (≈ 59 µM).
`O=C1/C(=C\c2cccnc2)N2CCC1CC2` returned a kinetic solubility of more than 32.1 µg/mL.
With `CCCc1cc(=O)[nH]c(SCC(=O)Nc2cc(S(=O)(=O)N3CCOCC3)ccc2Cl)n1`, the kinetic solubility is 63.8 µg/mL (≈ 131 µM).
Under `O=S(=O)(Nc1ccon1)c1ccc(Br)cc1` stands 32.2 µg/mL (≈ 106 µM); under `Cc1ccc(C(=O)NC2CCCCCCC2)c(Cl)c1`, 3.2 µg/mL (≈ 11.4 µM).
As for `O=c1c2ccc(Cl)cc2nc2n1CC/C2=C\c1cccc(O)c1`, the solubility (kinetic) is 2.9 µg/mL (≈ 8.93 µM).
Under `COC(=O)C(C)Oc1ccc(-c2nccc(-c3ccc(F)cc3)n2)cc1` (stereo unspecified) stands 2.6 µg/mL (≈ 7.38 µM); under `COc1ccccc1C(=O)NC(=O)COC(=O)C1CCC1`, more than 43.7 µg/mL.
Compound `COc1ccc(-c2nc3ccccc3o2)cc1OC` registered a solubility (kinetic) of less than 0.5 µg/mL.
As for `O=C(N/C(=C\c1ccccc1)C(=O)N1CCCCC1)c1ccc(Br)o1`, the kinetic solubility was more than 60.5 µg/mL.
In turn, `CC1(C)OC(=O)C(=CNc2ccccn2)C(=O)O1` showed a solubility (kinetic) of 28.5 µg/mL (≈ 115 µM).
For the compound `Cc1c(C(=O)Nc2ccccn2)oc2c(Cl)cccc12`, the solubility (kinetic) stood at 9.4 µg/mL (≈ 32.8 µM).
In the case of `O=C(CCc1nc(-c2ccccc2Cl)no1)NCC1CCCO1` (stereo unspecified), the kinetic solubility turned out to be 47.7 µg/mL (≈ 142 µM).
With `O=C(CSc1ncccn1)NCC1CCCO1` (stereo unspecified) the figure was more than 38 µg/mL.
In turn, `COc1ccc(NC(=O)c2ccccc2)c([N+](=O)[O-])c1` came in with a kinetic solubility of 2.1 µg/mL (≈ 7.71 µM).
Under `CCCCCNC(=O)[C@@H]1CSC2c3ccccc3C(=O)N21` (stereo partly specified) stands 27.7 µg/mL (≈ 91 µM); under `COc1ccc(NC(=O)COC(=O)C2C3CC4OC(=O)C2C4C3)cc1` (stereo unspecified), more than 51.8 µg/mL; under `O=C1NC(=Nc2ccc(F)cc2)SC1Cc1ccc(F)cc1` (stereo unspecified), 1 µg/mL (≈ 3.14 µM).
With `CCOC(=O)CC1C(=O)NCCN1C1CCCC1` (stereo unspecified) the figure was more than 38.1 µg/mL.
With `CC(C)(C)C(=O)COC(=O)C1=NN(c2ccccc2)C(=O)CC1` the figure was more than 47.5 µg/mL.
Regarding `Cc1c(C(=O)NC2CCCCC2C)oc2ccccc12` (stereo unspecified), the kinetic solubility stood at 1.7 µg/mL (≈ 6.26 µM).
`CCCCCC1CC(CC(=O)Nc2ccc([N+](=O)[O-])cc2)OC1=O` (stereo unspecified) returned a kinetic solubility of 0.5 µg/mL (≈ 1.5 µM).
Under `O=C(OCc1cnc(Cl)s1)c1c(F)cccc1F` stands 21.5 µg/mL (≈ 74.2 µM).
With `Cc1cc(NC(=O)CC2CCCC2)ccc1Br` the figure was 1.6 µg/mL (≈ 5.4 µM).
Under `CC(CC(=O)OCC(=O)NC1CCS(=O)(=O)C1)c1ccccc1` (stereo unspecified) stands more than 50.9 µg/mL.
As to `O=C(C1CCCO1)N1CCN(C(=S)NC2CC2)CC1` (stereo unspecified), the solubility (kinetic) is more than 42.5 µg/mL.
`Cc1ccc(-c2c(C)sc3nc[nH]c(=O)c23)cc1C` showed a kinetic solubility of 39.7 µg/mL (≈ 147 µM).
Under `CCOc1cc(C(=S)N2CCCC2)ccc1OC` stands more than 39.8 µg/mL; under `COc1cc(CN2CCC(Cc3ccccc3)CC2)c([N+](=O)[O-])cc1OC`, 33.5 µg/mL (≈ 90.4 µM).
With `CC(=O)c1ccc(NC(=O)C[n+]2cccc(C)c2)cc1.[Cl-]` the figure was more than 45.7 µg/mL.
`COc1ccc(N2CCN(C(=O)CN3C(=O)NC4(CCCCC4C)C3=O)CC2)cc1` (stereo unspecified) displayed a kinetic solubility of more than 62.2 µg/mL.
`CCOC(=O)c1ccccc1NC(=O)c1cc2ccccc2o1` yielded a solubility (kinetic) of less than 0.7 µg/mL.
With `O=C(NCC(c1cccs1)N1CCOCC1)c1cccnc1` (stereo unspecified) the figure was 43.6 µg/mL (≈ 137 µM); with `O=C(CC(Cc1ccccc1)C(=O)O)Nc1ccc(F)cc1` (stereo unspecified), more than 45.2 µg/mL; with `Cc1ccccc1CC(=O)NCCN1CCCCC1`, more than 39.1 µg/mL.
With `O=C(CNC(=O)c1ccccc1)OCC(=O)c1cccs1`, the solubility (kinetic) was more than 45.5 µg/mL.
